From US20100062068A1, “CISTUS EXTRACTS” (KREWEL […], priority 2007, published 2010) come the findings set out here.

This data set is described as follows: Storage stability of nasal sprays with preservatives. The source says:
As the preservative, for example, benzalkonium chloride, which is often employed in the field of nasal drops, may be used. […] In addition to the free acids as such, their partially or completely neutralized salts may also be added to the nasal sprays.

Where two headings read alike, the source gives them in different places.

As for `C/C=C/C=C/C(=O)O` [sorbic acid], the “storage stability of the nasal spray” value is recorded as “significant extension of the storage stability”. In the case of `O=C(O)c1ccccc1` [benzoic acid], the “storage stability of the nasal spray” value (preservative in nasal spray, compared to benzalkonium chloride) was “significant extension of the storage stability”.
